Source: patent publication US20070129419A1, “Serotonin transporter (SERT) inhibitors for the treatment of depression and anxiety” (priority 2005, published 2007)
Like-named read-outs stand apart in the source and are kept apart here.

Tests used:
human NK-1 receptor = biological target: T1, human NK-1 receptor (Homo sapiens, UniProt P25103); test: hNK-1 binding assay ([3H]substance P displacement, CHO cells); settings: [3H]substance P 0.6 nM, CHO cells transfected with human NK-1 receptor; read-out: pKi hNK1 (converted)
T1 construct: expressed in transfected cells; host or cells: CHO cells, Semliki virus expression system; membrane suspension
Method: The affinity of test compounds for the NK-1 receptor was evaluated at human NK-1 receptors in CHO cells transfected with the human NK-1 receptor using the Semliki virus expression system and radiolabelled with [^3H]substance P (final concentration 0.6 nM). Binding assays were performed in HEPES buffer (50 mM, pH 7.4) containing BSA (0.04%) leupeptin (8 μg/ml), MnCl2 (3 mM) and phosphoramidon (2 μM). Binding assays consisted of 250 μl of membrane suspension (1.25×10^5 cells/assay tube), 125 μl of buffer of displacing agent and 125 μl of [^3H]substance P. Displacement curves were determined with at least ten concentrations of the compound. The assay tubes were incubated for 60 min at room temperature after which time the tube contents were rapidly filtered under vacuum through GF/C filters presoaked for 60 min with PEI (0.3%) with 2×2 ml washes of HEPES buffer (50 mM, pH 7.4). The radioactivity retained on the filters was measured by scintillation counting. All assays were performed in duplicate in at least 2 separate experiments.
The inhibition dissociation constant (Ki) of each compound for NK1 is determined as described above for hSERT.

recombinant human SERT = biological target: T2, recombinant human SERT (Homo sapiens, UniProt P31645); test: hSERT SPA binding assay ([3H]citalopram displacement, HEK-293 membranes)
T2 construct: expressed in transfected cells; membrane preparation
Method: HEK-293 cells stably expressing recombinant human SERT are maintained with DMEM high glucose with 10% FBS, 300 μg/ml G418 and 2 mM L-Glutamine and incubated at 37° C. with 5% CO2. Cells are released from culture flasks using PBS for 1-2 min. The cells are subsequently centrifuged at 1000 g's for 5 min and resuspended in PBS prior to being used in the membrane preparation.
Cells are homogenized using a Polytron in 50 mM Tris (pH 7.4). Centrifuged at 48,000×g for 15 min, and the pellet resuspended in fresh buffer. After a second centrifugation, the pellet is re-homogenized and resuspended in fresh buffer. Typically, membrane portions are aliquoted in 3 mg/ml (w:v). and stored at −80° C.
A serial dilution of test compounds in 50 mM Tris-HCl, 120 mM NaCl, KCl 5 mM (pH 7.4) is made in a white Optiplate (Packard) (100 μl/well) and the radioligand ^3[H] Citalopram (Specific activity: 60-86 Ci/mmol, Final concentration: 1 nM) is added at 50 μl/well. Membrane and beads are prepared to a ratio of 5 μg:0.6 mg, with 0.6 mg PVT-WGA Amersham beads (Cat#RPQ0282V) added per well. 50 μl of the membrane/bead mixture is added to the assay plate for a final volume of 200 μl. The mixtures are allowed to stand at room temperature for one hour, and are then counted on a Packard TopCount.
The % inhibition is calculated for each compound tested (with 100% binding being the value obtained with the incubation of membrane/beads and radioligand in buffer without compound minus the non-specific binding measured in presence of 10 μM Fluoxetine). The concentration producing 50% inhibition (IC50) is determined using an iterative non-linear curve fitting technique. The inhibition dissociation constant (Ki) of each compound is determined according to the method of Cheng-Prusoff, decribed in Biochem. Pharmacol., 1973, 22(23), pages 3099-3108.

[1] = [3H]citalopram 1 nM, HEK-293 membranes expressing human SERT, read-out: pKi hSERT (converted)

T2 sequence (P31645 whole entry): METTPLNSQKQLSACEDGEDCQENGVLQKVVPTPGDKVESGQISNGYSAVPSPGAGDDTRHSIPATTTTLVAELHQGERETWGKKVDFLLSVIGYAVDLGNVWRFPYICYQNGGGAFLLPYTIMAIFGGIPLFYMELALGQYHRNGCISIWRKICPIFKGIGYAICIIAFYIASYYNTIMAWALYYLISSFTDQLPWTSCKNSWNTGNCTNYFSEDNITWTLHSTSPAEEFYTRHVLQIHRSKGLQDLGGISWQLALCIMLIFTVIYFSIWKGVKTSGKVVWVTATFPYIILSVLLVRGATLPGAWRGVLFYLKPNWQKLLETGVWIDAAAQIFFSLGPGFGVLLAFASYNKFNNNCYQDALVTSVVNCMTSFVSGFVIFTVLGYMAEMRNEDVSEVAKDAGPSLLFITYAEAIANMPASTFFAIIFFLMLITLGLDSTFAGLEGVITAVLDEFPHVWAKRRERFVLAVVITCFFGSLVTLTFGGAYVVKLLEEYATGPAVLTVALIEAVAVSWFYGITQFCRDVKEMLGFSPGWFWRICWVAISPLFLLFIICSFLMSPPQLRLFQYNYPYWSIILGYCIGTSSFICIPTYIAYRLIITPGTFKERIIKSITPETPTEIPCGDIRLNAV
T1 sequence (P25103 whole entry): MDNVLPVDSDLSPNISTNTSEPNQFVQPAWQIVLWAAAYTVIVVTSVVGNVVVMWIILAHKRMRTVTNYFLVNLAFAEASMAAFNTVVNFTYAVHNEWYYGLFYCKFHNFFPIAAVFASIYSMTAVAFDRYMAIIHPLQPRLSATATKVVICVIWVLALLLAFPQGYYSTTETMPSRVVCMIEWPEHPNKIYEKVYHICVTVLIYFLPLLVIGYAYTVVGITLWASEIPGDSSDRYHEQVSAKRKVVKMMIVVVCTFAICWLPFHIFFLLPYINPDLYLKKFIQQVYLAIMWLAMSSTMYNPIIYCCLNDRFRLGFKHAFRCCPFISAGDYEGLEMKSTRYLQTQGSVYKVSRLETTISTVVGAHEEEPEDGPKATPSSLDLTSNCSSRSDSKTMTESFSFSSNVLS

| SMILES | Ki (human NK-1 receptor) [nM] | Ki (recombinant human SERT) [nM] | Ki (recombinant human SERT; [1]) [nM] |
| --- | --- | --- | --- |
| Fc1ccc([C@@H]2CNC[C@@H]2COCc2cc(C(F)(F)F)cc(C(F)(F)F)c2)cc1 [1 of I] | 295 | 2.75 | – |
| Fc1cccc([C@@H]2CNC[C@@H]2COCc2cc(C(F)(F)F)cc(C(F)(F)F)c2)c1 [2 of I] | 46.8 | – | 5.89 |
| Fc1ccccc1[C@@H]1CNC[C@@H]1COCc1cc(C(F)(F)F)cc(C(F)(F)F)c1 [3 of I] | 50.1 | – | 3.47 |
| FC(F)(F)c1cc(COC[C@H]2CNC[C@H]2c2ccc(Cl)cc2)cc(C(F)(F)F)c1 [4 of I] | 53.7 | – | 4.47 |
| FC(F)(F)c1cc(COC[C@H]2CNC[C@H]2c2cccc(Cl)c2)cc(C(F)(F)F)c1 [5 of I] | 31.6 | – | 8.13 |
| FC(F)(F)c1cc(COC[C@H]2CNC[C@H]2c2ccccc2Cl)cc(C(F)(F)F)c1 [6 of I] | 43.7 | – | 10.2 |
| Cc1ccccc1[C@@H]1CNC[C@@H]1COCc1cc(C(F)(F)F)cc(C(F)(F)F)c1 [7 of I] | 28.8 | – | 7.59 |
| FC(F)(F)c1cc(COC[C@H]2CNC[C@H]2c2ccccc2)cc(C(F)(F)F)c1 [8 of I] | 43.7 | – | 4.9 |
| Brc1cc(Br)cc(COC[C@H]2CNCC2c2ccccc2)c1 (stereo partly shown) [9 of I] | 41.7 | – | 5.89 |
| Cc1cc(C)cc(COC[C@H]2CNC[C@H]2c2ccccc2)c1 [10 of I] | 257 | – | 4.57 |
| Fc1cc(COC[C@H]2CNC[C@H]2c2ccccc2)cc(C(F)(F)F)c1 [11 of I] | 224 | – | 5.75 |
| FC(F)(F)c1cccc(COC[C@H]2CNC[C@H]2c2ccccc2)c1 [12 of I] | 676 | – | 11 |
| FC(F)(F)Oc1cccc(COC[C@H]2CNC[C@H]2c2ccccc2)c1 [13 of I] | 759 | – | 13.8 |
| COc1cc(COC[C@H]2CNC[C@H]2c2ccccc2)cc(OC)c1 [14 of I] | 741 | – | 20.4 |
| FC(F)(F)c1ccccc1COC[C@H]1CNC[C@H]1c1ccccc1 [15 of I] | 646 | – | 70.8 |
| FC(F)(F)c1cc(CNC[C@H]2CNC[C@H]2c2ccccc2)cc(C(F)(F)F)c1 [16 of I] | 26.3 | – | 22.9 |
| CN(Cc1cc(C(F)(F)F)cc(C(F)(F)F)c1)C[C@H]1CNC[C@H]1c1ccccc1 [17 of I] | 31.6 | – | 8.13 |
